Data from patent US6761896B1, “Skin cosmetic care system and method” (Unilever Home & Personal Care USA, division of Conopco, Inc., priority 1998, dated 2004).
Several values for one entry are separate records, joined by “and”; a condition that tells them apart may be missing. Equal entries are not always repeated.

Columns and labels:
Format in all cases: cell-based
MelanoDerm MEL-300 = test: Pigmentation in MelanoDerm Living Skin Equivalent (blue colour image analysis); settings: for effect of South pole magnetism on skin depigmenting action: Kojic acid 500, Yohimbine 25, Ascorbic acid 285 micro-molar, magnet vs no magnet, p<0.05; for Pigmentation Reduction Magnet % South Pole (B): day 14, South Pole magnet; for Pigmentation Reduction Magnet % South Pole (B) / Pigmentation Reduction % No Magnet (A): individual tissues; for Pigmentation Reduction % No Magnet (A): day 14, no magnet, relative to untreated control
Procedure: Kojic acid, Vitamin C, and Yohimbine were examined for their ability to reduce pigmentation in the MelanoDerm Living Skin Equivalent in the presence and absence of South Pole magnetism. After 14 days of incubation, during which one series of tissues was exposed to South Pole magnetism and an equivalent duplicate series was not, the melanin color formed in each tissue was estimated using primary color image analysis.
MelanoDerm™ MEL-300, a 3-dimensional epidermal model containing functioning melanoctyes produced by MatTek Corporation, Ashland, Mass., was the tissue used for this experiment. Each MEL-300 kit has 24 tissue pieces.
Three depigmenting actives were added to the Melanoderm incubation medium at the following final concentrations,
Two (2) MEL-300 kits, each with 24 tissue pieces, were prepared with identical application of actives. Each active, Vitamin C, Kojic acid & Yohimbine, was applied to the incubation medium of 5 tissues at the concentrations specified above. 4 tissues were untreated. […] One Mel-300 kit prepared as above was placed on the 6 inch×4 inch South Pole surface of the Ferrimag magnet for incubation, and the identical second Mel-300 kit was incubated at the opposite side (top left vs bottom right) of the same incubator and additionally shielded from the magnet.
The tissues were incubated for 14 days in maintenance medium at 37 degrees centigrade and a constant atmosphere (5%CO2). The maintenance medium and actives were replenished 4 times weekly. At 7 days, 2 tissues were removed from each active and control group leaving 3 tissues in each group (2 in the untreated group) for day 14 evaluation.
At the day 14 completion of the experiment the tissue pieces of each Mel-300 incubation plate were photographed from above. Each tissue appeared as a small disc varying in brown color intensity. The photographs of two Mel-300 incubation plates (one incubated on the magnet and one without magnetism) were scanned into a Pentium II computer and the color primary color content of each disc was measured using a color analysis macro within an Optimas image quantification software package. The blue color content was used as an index of melanin pigment (preliminary experiments confirmed that the principle primary color of melanin is blue using this image analysis system—this was established by comparing brown freckles and age spots with surrounding non-pigmented skin in color photographs of Caucasian human skin). The blue color intensity scale is 0-255 where 0 is saturation with blue color and 255 is total absence of blue color. The actual blue scale reading of each tissue sample was converted to a % blue value by computing it's proportion of the full range of 0to 255.

human sebocytes = test: Lipid production by sebocytes in vitro (14C-acetate incorporation); settings: for % Reduction: vs control of same plate
Procedure: This example measured the effect of various actives in combination with magnets on lipid production by sebocytes in vitro.
Secondary cultures of human sebocytes obtained from an adult […] were grown in the inner 24 wells of 48-well tissue culture plates (Costar Corp.; Cambridge, Mass.) until confluent. Sebocyte growth medium consisted of Clonetics Keratinocyte Basal Medium (KBM) supplemented with 14 ug/ml bovine pituitary extract, 0.4 ug/ml hydrocortisone, 5 ug/ml insulin, 10 ng/ml epidermal growth factor, 1.2×10^−10 M cholera toxin, 100 units/ml penicillin, and 100 ug/ml streptomycin. All cultures were incubated at 37° C. in the presence of 7.5% CO2. Medium was changed three times per week.
On the first day of experimentation, the growth medium was removed and the sebocytes washed three times with sterile Dulbecco's Modified Eagle Medium (DMEM; phenol red free). Fresh DMEM was added to each sample (triplicates) with 5 microliter of test agent solubilized in ethanol (312.5 uM iso-tridecylsalicylate or 10 uM Retinyl Linoleate; 6 replicates for each sample). Controls consisted of addition of ethanol alone. Each magnet was sandwiched between 2 plates for 24 hours. For 2 of the sebocyte plates, the configuration was North magnet pointing up, for 2 other plates, the configuration was reversed (South magnet up), and one plate served as a control (no presence of magnets).
After 24 hours, addition of ^14C-acetate buffer (5 mM final concentration, 56 mCi/mmol specific activity) was performed. Sebocytes were then returned to the incubator for four hours after which each culture was rinsed three times with phosphate buffered saline to remove unbound label. Radioactive label remaining in the sebocytes was harvested and counted using a Beckman scintillation counter.

PGE-2 = PGE-2 release by MelanoDerm Living Skin Equivalents (Elisa); set-up: PGE-2(i) / PGE-2 (ii): unit not given beside the values; settings: 0.5% phytic acid; for PGE-2 release % Untreated: 24 hr; for PGE-2(i): first determination; for PGE-2(i) / PGE-2 (ii): individual tissues; for PGE-2 Mean: mean of (i) and (ii); for PGE-2 (ii): second determination 7 days later
Procedure: (§1) Phytic acid (0.5%) was examined for its effect on cytokine release by MelanoDerm Living Skin Equivalents in the presence and absence of South Pole magnetism. After 24 hours incubation, during which one set of tissues was exposed to South Pole magnetism and an equivalent duplicate series was not, the culture medium was assayed for IL1-a and PGE-2. In the absence of magnetism there was a significant increase in medium concentration of both IL1-a and PGE-2. These increases were suppressed in the presence of South pole magnetism. Living Skin Equivalent: MelanoDermTM MEL-300, a 3-dimensional epidermal model containing functioning melanoctyes produced by MatTek Corporation, Ashland, Mass., was the tissue used for this experiment. Fifty (50) microliters of phytic acid solution (0.5%) was applied to the stratum corneum surface of 4 MEL-300 tissues. Eight (8) untreated MEL-300 tisues served as controls. Half the tissues (i.e. 2 phytic acid and 4 untreated controls) were placed on the 6 inch×4 inch South Pole surface of the […] magnet for 24 hours incubation (37 degrees centigrade; 5% CO2). After the 24 hr incubation the tissues were removed from the incubation medium and assayed for MTT to confirm tissue viability. The incubation medium was assayed for content of cytokines IL1-a and PGE-2. The tissue samples were refrigerated and a second determination of cyotkines was made 7 days later. The cytokine assays were performed using commercially available 96 well Elisa kits.

IL1-a = IL1-a release by MelanoDerm Living Skin Equivalents (Elisa); set-up: IL1-a(i) / IL1-a(ii): unit not given here; settings: 0.5% phytic acid; for IL1-a release % Untreated: 24 hr; for IL1-a(i): first determination; for IL1-a(i) / IL1-a(ii): individual tissues; for IL1-a Mean: mean of (i) and (ii); for IL1-a(ii): second determination 7 days later
Procedure: as §1

MelanoDerm tissue = MelanoDerm tissue viability by MTT; settings: 0.5% in water, preliminary experiment
Procedure: Phytic acid was tested at a concentration of 0.5% in water.

[1] = 312.5 uM TDS, Plate A: No Magnet Presence
[2] = 312.5 uM TDS, Plate B: North Magnet Up (Top Plate)
[3] = 312.5 uM TDS, Plate C: North Magnet Up (Bottom Plate)
[4] = 312.5 uM TDS, Plate D: South Magnet Up (Top Plate)
[5] = 312.5 uM TDS, Plate E: South Magnet Up (Bottom Plate)
[6] = No Magnetism, increase over untreated
[7] = 10 uM Retinyl Linoleate, Plate A: No Magnet Presence
[8] = 10 uM Retinyl Linoleate, Plate B: North Magnet Up (Top Plate)
[9] = 10 uM Retinyl Linoleate, Plate C: North Magnet Up (Bottom Plate)
[10] = 10 uM Retinyl Linoleate, Plate D: South Magnet Up (Top Plate)
[11] = 10 uM Retinyl Linoleate, Plate E: South Magnet Up (Bottom Plate)

With `COC(=O)[C@@H]1[C@H]2C[C@H]3c4[nH]c5ccccc5c4CCN3C[C@@H]2CC[C@@H]1O` [Yohimbine] the “effect of South pole magnetism on skin depigmenting action” value (“effect of South pole magnetism” below) (MelanoDerm MEL-300) was “enhances”, the “Mean A-B (Mean Difference)” value (MelanoDerm MEL-300; Yohimbine 25 micro-molar) was −3.27 and the “Pigmentation Reduction Magnet % South Pole (B)” value (MelanoDerm MEL-300; Yohimbine 25 micro-molar) was −2.55% and −8.08% and −6.76%. For the same molecule, the “Pigmentation Reduction % No Magnet (A)” value (MelanoDerm MEL-300; Yohimbine 25 micro-molar) was 1.85% and −5.63% and −3.8%.

For `O=c1cc(CO)occ1O` [Kojic Acid, Kojic acid], the “effect of South pole magnetism” value (MelanoDerm MEL-300) was “enhances”, the “Mean A-B (Mean Difference)” value (MelanoDerm MEL-300; Kojic acid 500 micro-molar) was −2.06 and the “Pigmentation Reduction Magnet % South Pole (B)” value (MelanoDerm MEL-300; Kojic acid 500 micro-molar) was −9.21% and −10.02% and 4.75%. The “Pigmentation Reduction % No Magnet (A)” value (MelanoDerm MEL-300; Kojic acid 500 micro-molar) was −4.77% and −8.72% and −4.27%.

In the case of iso-tridecylsalicylate [TDS], the “DPMs (AVG)” value (human sebocytes; [1]) is reported as 2913.0 DPMs, the “% Reduction” value (human sebocytes; [1]) is reported as 36.3% and the “DPMs (AVG)” value (human sebocytes; [2]) is reported as 3367.8 DPMs. For the same molecule, the “% Reduction” value (human sebocytes; [2]) was 23.6%, the “DPMs (AVG)” value (human sebocytes; [3]) was 3543.9 DPMs and the “% Reduction” value (human sebocytes; [3]) was 4.9%. The “DPMs (AVG)” value (human sebocytes; [4]) was 3040.0 DPMs, the “% Reduction” value (human sebocytes; [4]) was 14.7% and the “DPMs (AVG)” value (human sebocytes; [5]) was 2677.4 DPMs. For the same molecule, the “% Reduction” value (human sebocytes; [5]) was 20.5%.

`O=P(O)(O)O[C@H]1[C@H](OP(=O)(O)O)[C@@H](OP(=O)(O)O)[C@H](OP(=O)(O)O)[C@@H](OP(=O)(O)O)[C@H]1OP(=O)(O)O` [Phytic acid] was tested, and the “PGE-2 release % Untreated” value (PGE-2; + South Pole Magnetism, change over untreated plus magnet) was −2%, the “PGE-2 release % Untreated” value (PGE-2; [6]) was 191% and the “PGE-2(i)” value (PGE-2; South Pole magnet) was 2056 and 2387. For the same molecule, the “PGE-2 Mean” value (PGE-2; South Pole magnet) was 2093 +/− 208, the “PGE-2 (ii)” value (PGE-2; South Pole magnet) was 1899 and 2030 and the “PGE-2(i)” value (PGE-2; no magnet) was 5326 and 4673. For the same molecule, the “PGE-2 Mean” value (PGE-2; no magnet) was 5136 +/− 421, the “PGE-2 (ii)” value (PGE-2; no magnet) was 5621 and 4923 and the “IL1-a release % Untreated” value (IL1-a; + South Pole Magnetism, increase over untreated plus magnet) was 16%. For the same molecule, the “IL1-a release % Untreated” value (IL1-a; [6]) was 99%, the “IL1-a(i)” value (IL1-a; South Pole magnet) was 239.1 and 108.9 and the “IL1-a Mean” value (IL1-a; South Pole magnet) was 151.2 +/− 64. For the same molecule, the “IL1-a(ii)” value (IL1-a; South Pole magnet) was 158.2 and 98.4, the “IL1-a(i)” value (IL1-a; no magnet) was 285.3 and 222.9 and the “IL1-a Mean” value (IL1-a; no magnet) was 209 +/− 61. The “IL1-a(ii)” value (IL1-a; no magnet) was 186.2 and 141.1 and the “toxicity to MelanoDerm tissue (tissue viability by MTT)” value (MelanoDerm tissue) was “non-toxic”.

In the case of `O=C1O[C@H]([C@@H](O)CO)C(O)=C1O` [Vitamine C, Ascorbic acid], the “Mean A-B (Mean Difference)” value (MelanoDerm MEL-300; Ascorbic acid 285 micro-molar) is reported as −3.97, the “Pigmentation Reduction Magnet % South Pole (B)” value (MelanoDerm MEL-300; Ascorbic acid 285 micro-molar) is reported as −6.18% and −6.34% and −4.55% and the “Pigmentation Reduction % No Magnet (A)” value (MelanoDerm MEL-300; Ascorbic acid 285 micro-molar) is reported as −4.21% and −2.65% and 1.7%. The “effect of South pole magnetism” value (MelanoDerm MEL-300) was “enhances”.

With `CCCCC/C=C\C/C=C\CCCCCCCC(=O)OC/C=C(C)/C=C/C=C(C)/C=C/C1=C(C)CCCC1(C)C` [Retinyl Linoleate] the “DPMs (AVG)” value (human sebocytes; [7]) was 4198.1 DPMs, the “% Reduction” value (human sebocytes; [7]) was 3.9% and the “DPMs (AVG)” value (human sebocytes; [8]) was 4123.0 DPMs. For the same molecule, the “% Reduction” value (human sebocytes; [8]) was 6.5%, the “DPMs (AVG)” value (human sebocytes; [9]) was 3660.1 DPMs and the “% Reduction” value (human sebocytes; [9]) was 1.8%. For the same molecule, the “DPMs (AVG)” value (human sebocytes; [10]) was 3619.4 DPMs, the “% Reduction” value (human sebocytes; [10]) was −1.6% and the “DPMs (AVG)” value (human sebocytes; [11]) was 3181.1 DPMs. For the same molecule, the “% Reduction” value (human sebocytes; [11]) was 5.6%.
